How the values were obtained:
[1] = test system: antibodies in sera from SARS patients (sera 1a, 1b, 2, 6, 37, 62, London, SARS-yellow, SARS-green); assay type: binding, human; design: Binding of serum 6 to linear peptides of protein X1 of SARS-CoV Urbani / Binding of serum 37 to linear peptides of protein X1 of SARS-CoV Urbani / Binding of serum 6 to looped/cyclic peptide (PEPSCAN-ELISA) / Binding of serum 37 to looped/cyclic peptide (PEPSCAN-ELISA) / Binding of serum 37 to looped/cyclic peptides of protein X1 of SARS-CoV Urbani / Binding of serum 6 to linear peptides of protein X2 / Binding of serum 37 to linear peptides of protein X2 / Binding of serum 37 to looped/cyclic peptides of protein X2 of SARS-CoV Urbani / Binding of serum 6 to linear peptides of protein M of SARS-CoV Urbani / Binding of serum 37 to linear peptides of protein M of SARS-CoV Urbani / Binding of serum 6 to looped/cyclic peptides of protein M of SARS-CoV Urbani / Binding of serum 37 to looped/cyclic peptides of protein M of SARS-CoV Urbani / Binding of serum 6 to linear peptides of protein X3 of SARS-CoV Urbani / Binding of serum 37 to linear peptides of protein X3 of SARS-CoV Urbani / Binding of serum 37 to looped/cyclic peptides of protein X3 of SARS-CoV Urbani / Binding of serum 6 to linear peptides of protein X4 of SARS-CoV Urbani / Binding of serum 37 to linear peptides of protein X4 of SARS-CoV Urbani / Binding of serum 37 to looped/cyclic peptides of protein X4 of SARS-CoV Urbani / Binding of serum 6 to linear peptides of protein X5 of SARS-CoV Urbani / Binding of serum 37 to linear peptides of protein X5 of SARS-CoV Urbani / Binding of serum 37 to looped/cyclic peptides of protein X5 of SARS-CoV Urbani / Binding of serum 6 to linear peptides of protein N of SARS-CoV Urbani / Binding of serum 37 to linear peptides of protein N of SARS-CoV Urbani / Binding of serum 6 to linear peptide (PEPSCAN-ELISA) / Binding of serum 1a to looped/cyclic peptides of protein N of SARS-CoV Urbani / Binding of serum 1b to looped/cyclic peptides of protein N of SARS-CoV Urbani / Binding of serum 2 to looped/cyclic peptides of protein N of SARS-CoV Urbani / Binding of serum 6 to looped/cyclic peptides of protein N of SARS-CoV Urbani / Binding of serum 37 to looped/cyclic peptides of protein N of SARS-CoV Urbani / Binding of serum 62 to looped/cyclic peptides of protein N of SARS-CoV Urbani / Binding of serum London to looped/cyclic peptides of protein N of SARS-CoV Urbani / Binding of serum SARS-green to looped/cyclic peptides of protein N of SARS-CoV Urbani: unit not given here
[2] = test system: control sera (pooled serum of ten healthy LUMC hospital workers; commercial negative donor pooled serum from the Dutch bloodbank); assay type: binding, human; design: Binding of Control serum LUMC to linear peptides / Binding of Control serum Blood-bank to linear peptides / Binding of Control serum LUMC to looped peptides / Binding of Control Serum Blood-Bank to Looped peptides / Binding of Control serum LUMC to linear peptides of the protein M of SARS-CoV Urbani / Binding of Control serum Blood-bank to linear peptides of the protein M of SARS-CoV Urbani / Binding of Control serum LUMC to looped peptides of the protein M of SARS-CoV Urbani / Binding of Control Serum Blood-Bank to Looped peptides of the protein M of SARS-CoV Urbani: unit not given here
[3] = test system: rabbit serum obtained by immunizing a rabbit with the SARS-CoV strain Frankfurt 1; assay type: binding; design: Binding of a rabbit serum to linear peptides / Binding of a rabbit serum to looped peptides / Rabbit serum linear peptides / Rabbit serum looped peptides / Binding of a rabbit serum to linear peptides of protein N of SARS-CoV Urbani (Rabbit serum linear peptides) / Binding of a rabbit serum to looped/cyclic peptides of protein N of SARS-CoV Urbani (Rabbit serum looped peptides): unit not given here

ALVFLILCFTIKRKT
Binding of serum 1a to linear peptides of protein X4 of SARS-CoV Urbani [1]: 0.7 | Binding of serum 1a to looped/cyclic peptides of protein X4 of SARS-CoV Urbani [1]: 0.8 | Binding of serum 1b to linear peptides of protein X4 of SARS-CoV Urbani [1]: 0.6 | Binding of serum 1b to looped/cyclic peptides of protein X4 of SARS-CoV Urbani [1]: 0.5 | Binding of serum 2 to linear peptides of protein X4 of SARS-CoV Urbani [1]: 0.7 | Binding of serum 2 to looped/cyclic peptides of protein X4 of SARS-CoV Urbani [1]: 0.8 | Binding of serum 6 to linear peptides of protein X4 of SARS-CoV Urbani [1]: 0.7 | Binding of serum 6 to looped/cyclic peptides of protein X4 of SARS-CoV Urbani [1]: 0.9 | Binding of serum 37 to linear peptides of protein X4 of SARS-CoV Urbani [1]: 0.7 | Binding of serum 37 to looped/cyclic peptides of protein X4 of SARS-CoV Urbani [1]: 0.6 | Binding of serum 62 to linear peptides of protein X4 of SARS-CoV Urbani [1]: 0.8 | Binding of serum 62 to looped/cyclic peptides of protein X4 of SARS-CoV Urbani [1]: 0.7 | Binding of serum London to linear peptides of protein X4 of SARS-CoV Urbani [1]: 0.8 | Binding of serum London to looped/cyclic peptides of protein X4 of SARS-CoV Urbani [1]: 1.1 | Binding of serum SARS-green to linear peptides of protein X4 of SARS-CoV Urbani [1]: 0.7 | Binding of serum SARS-green to looped/cyclic peptides of protein X4 of SARS-CoV Urbani [1]: 0.5 | Binding of serum SARS-yellow to linear peptides of protein X4 of SARS-CoV Urbani [1]: 0.4 | Binding of serum SARS-yellow to looped/cyclic peptides of protein X4 of SARS-CoV Urbani [1]: 0.6 | Binding of Control Serum Blood-Bank to Looped peptides [2]: 0.8 | Binding of Control serum Blood-bank to linear peptides [2]: 0.8 | Binding of Control serum LUMC to linear peptides [2]: 0.6 | Binding of Control serum LUMC to looped peptides [2]: 0.7 | Rabbit serum linear peptides [3]: 0.6 | Rabbit serum looped peptides [3]: 0.6

AMACIVGLMWLSYFV
Binding of serum 1a to linear peptides of protein M of SARS-CoV Urbani [1]: 0.7 | Binding of serum 1a to looped/cyclic peptides of protein M of SARS-CoV Urbani [1]: 0.7 | Binding of serum 1b to linear peptides of protein M of SARS-CoV Urbani [1]: 0.5 | Binding of serum 1b to looped/cyclic peptides of protein M of SARS-CoV Urbani [1]: 0.7 | Binding of serum 2 to linear peptides of protein M of SARS-CoV Urbani [1]: 0.6 | Binding of serum 2 to looped/cyclic peptides of protein M of SARS-CoV Urbani [1]: 0.6 | Binding of serum 6 to linear peptides of protein M of SARS-CoV Urbani [1]: 0.4 | Binding of serum 6 to looped/cyclic peptides of protein M of SARS-CoV Urbani [1]: 0.9 | Binding of serum 37 to linear peptides of protein M of SARS-CoV Urbani [1]: 0.6 | Binding of serum 37 to looped/cyclic peptides of protein M of SARS-CoV Urbani [1]: 0.6 | Binding of serum 62 to linear peptides of protein M of SARS-CoV Urbani [1]: 0.6 | Binding of serum 62 to looped/cyclic peptides of protein M of SARS-CoV Urbani [1]: 0.5 | Binding of serum London to linear peptides of protein M of SARS-CoV Urbani [1]: 0.4 | Binding of serum London to looped/cyclic peptides of protein M of SARS-CoV Urbani [1]: 0.2 | Binding of serum SARS-green to linear peptides of protein M of SARS-CoV Urbani [1]: 0.2 | Binding of serum SARS-green to looped/cyclic peptides of protein M of SARS-CoV Urbani [1]: 0.4 | Binding of serum SARS-yellow to linear peptides of protein M of SARS-CoV Urbani [1]: 0.1 | Binding of serum SARS-yellow to looped/cyclic peptides of protein M of SARS-CoV Urbani [1]: 0.6 | Binding of Control Serum Blood-Bank to Looped peptides of the protein M of SARS-CoV Urbani [2]: 0.6 | Binding of Control serum Blood-bank to linear peptides of the protein M of SARS-CoV Urbani [2]: 0.6 | Binding of Control serum LUMC to linear peptides of the protein M of SARS-CoV Urbani [2]: 0.3 | Binding of Control serum LUMC to looped peptides of the protein M of SARS-CoV Urbani [2]: 0.7 | Rabbit serum linear peptides [3]: 0.4 | Rabbit serum looped peptides [3]: 0.1

AQFLYLYALIYFLQC
Binding of serum 1a to linear peptides of protein X1 of SARS-CoV Urbani [1]: 0.6 | Binding of serum 1a to looped/cyclic peptide (PEPSCAN-ELISA) [1]: 0.5 | Binding of serum 1b to linear peptides of protein X1 of SARS-CoV Urbani [1]: 0.5 | Binding of serum 1b to looped/cyclic peptide (PEPSCAN-ELISA) [1]: 0.3 | Binding of serum 2 to linear peptides of protein X1 of SARS-CoV Urbani [1]: 0.5 | Binding of serum 2 to looped/cyclic peptide (PEPSCAN-ELISA) [1]: 0.4 | Binding of serum 6 to linear peptides of protein X1 of SARS-CoV Urbani [1]: 0.3 | Binding of serum 6 to looped/cyclic peptide (PEPSCAN-ELISA) [1]: 0.2 | Binding of serum 37 to linear peptides of protein X1 of SARS-CoV Urbani [1]: 0.6 | Binding of serum 37 to looped/cyclic peptide (PEPSCAN-ELISA) [1]: 0.4 | Binding of serum 62 to linear peptides of protein X1 of SARS-CoV Urbani [1]: 0.4 | Binding of serum 62 to looped/cyclic peptide (PEPSCAN-ELISA) [1]: 0.5 | Binding of serum London to linear peptides of protein X1 of SARS-CoV Urbani [1]: 0.2 | Binding of serum London to looped/cyclic peptide (PEPSCAN-ELISA) [1]: 0.2 | Binding of serum SARS-green to linear peptides of protein X1 of SARS-CoV Urbani [1]: 0.2 | Binding of serum SARS-green to looped/cyclic peptide (PEPSCAN-ELISA) [1]: 0.3 | Binding of serum SARS-yellow to linear peptides of protein X1 of SARS-CoV Urbani [1]: 0.4 | Binding of serum SARS-yellow to looped/cyclic peptide (PEPSCAN-ELISA) [1]: 0.3 | Binding of Control Serum Blood-Bank to Looped peptides [2]: 0.4 | Binding of Control serum Blood-bank to linear peptides [2]: 0.4 | Binding of Control serum LUMC to linear peptides [2]: 0.5 | Binding of Control serum LUMC to looped peptides [2]: 0.5 | Binding of a rabbit serum to linear peptides [3]: 0.2 | Binding of a rabbit serum to looped peptides [3]: 0.5

ASFRLFARTRSMWSF
Binding of serum 1a to linear peptides of protein M of SARS-CoV Urbani [1]: 0.7 | Binding of serum 1a to looped/cyclic peptides of protein M of SARS-CoV Urbani [1]: 0.6 | Binding of serum 1b to linear peptides of protein M of SARS-CoV Urbani [1]: 0.6 | Binding of serum 1b to looped/cyclic peptides of protein M of SARS-CoV Urbani [1]: 0.5 | Binding of serum 2 to linear peptides of protein M of SARS-CoV Urbani [1]: 0.5 | Binding of serum 2 to looped/cyclic peptides of protein M of SARS-CoV Urbani [1]: 0.5 | Binding of serum 6 to linear peptides of protein M of SARS-CoV Urbani [1]: 0.7 | Binding of serum 6 to looped/cyclic peptides of protein M of SARS-CoV Urbani [1]: 0.9 | Binding of serum 37 to linear peptides of protein M of SARS-CoV Urbani [1]: 0.4 | Binding of serum 37 to looped/cyclic peptides of protein M of SARS-CoV Urbani [1]: 0.5 | Binding of serum 62 to linear peptides of protein M of SARS-CoV Urbani [1]: 0.4 | Binding of serum 62 to looped/cyclic peptides of protein M of SARS-CoV Urbani [1]: 0.5 | Binding of serum London to linear peptides of protein M of SARS-CoV Urbani [1]: 0.3 | Binding of serum London to looped/cyclic peptides of protein M of SARS-CoV Urbani [1]: 0.2 | Binding of serum SARS-green to linear peptides of protein M of SARS-CoV Urbani [1]: 0.4 | Binding of serum SARS-green to looped/cyclic peptides of protein M of SARS-CoV Urbani [1]: 0.2 | Binding of serum SARS-yellow to linear peptides of protein M of SARS-CoV Urbani [1]: 0.2 | Binding of serum SARS-yellow to looped/cyclic peptides of protein M of SARS-CoV Urbani [1]: 0.6 | Binding of Control Serum Blood-Bank to Looped peptides of the protein M of SARS-CoV Urbani [2]: 0.7 | Binding of Control serum Blood-bank to linear peptides of the protein M of SARS-CoV Urbani [2]: 0.7 | Binding of Control serum LUMC to linear peptides of the protein M of SARS-CoV Urbani [2]: 0.6 | Binding of Control serum LUMC to looped peptides of the protein M of SARS-CoV Urbani [2]: 0.7 | Rabbit serum linear peptides [3]: 0.3 | Rabbit serum looped peptides [3]: 0.2

Source: patent US20070128217A1 (priority 2003, published 2007)
